Data: patent US6407126B1 (priority 1997, dated 2002)
Where two headings read alike, the source gives them in different places.

Tested on: Phytophthora infestans
Type: in vivo
Settings: tomato leaves, infected next day, evaluated after 6 days
[1] = 50 ppm active ingredient in the spray liquor
[2] = 100 ppm active ingredient in the spray liquor

## O=C(Nc1ccccc1-c1ccc(F)cc1)c1cccnc1Cl [Compound I.1]
[1]
  Efficacy in % of the untreated control: 0%
[2]
  Efficacy in % of the untreated control: 0%

## CC1(c2ccc(Oc3ccccc3)cc2)OC(=O)N(Nc2ccccc2)C1=O (stereo not drawn) [Compound VI]
25 ppm active ingredient in the spray liquor
  Efficacy in % of the untreated control: 70%
[1]
  Efficacy in % of the untreated control: 70%
[2]
  Efficacy in % of the untreated control: 80%

## manganese ethylenebis(dithiocarbamate) (zinc complex) [Compound IIa]
12.5 ppm active ingredient in the spray liquor
  Efficacy in % of the untreated control: 70%
